Measured values from patent publication US11051510B2, “Asymmetric formales and acetales as adjuvants for crop protection” (BASF SE, priority 2014, dated 2021).

System: Puccinia recondita
Test: Greenhouse test on wheat infected with Puccinia recondita at full and reduced dose rate (Example 12)
Format: in vivo, Puccinia recondita on wheat (species "Kanzler")
Settings: for Infected leaf area at 25% dose rate: 2.5 g/ha pesticide (epoxiconazole) and 5 g/ha adjuvant; for Infected leaf area at 100% dose rate: 10 g/ha pesticide (epoxiconazole) and 20 g/ha adjuvant
Method: The biological activity was assessed in a greenhouse on wheat (species “Kanzler”), which was infected with Puccinia recondita at two leafs stage and incubated for three days at high humidity. The plants were sprayed (spray volume 200 l/ha) with a composition comprising 50 ppm (10 g/ha) epoxiconazole and 100 ppm (20 g/ha) of the respective adjuvant samples from Example 1-9. In the comparative example no adjuvant was added. The plants were further cultivated for ten days at 20-24° C. and 60-90% relative humidity. Finally, the percentage of the infected leaf area was visually inspected. Each value was based on three replicates.
The biological activity was assessed in a greenhouse as described in Example 11 with a dose rate of 10 g/ha pesticide and 20 g/ha adjuvant (“100%” in Table 4) and a reduced dose rate of 2.5 g/ha pesticide and 5 g/ha adjuvant (“25%” in Table 4). In this test the adjuvants from Example 1 (formula A), Example 2 (formula B) and as comparative adjuvant butyl endcapped ethoxylated (5EO) n-dodecanol (formula C) were compared. All three compounds are butyl endcapped. Formula A and C have the same degree of ethoxylation of five ethylene oxide (EO) units. Formula B (only 3 EO) and C have a similar overall molecule weight. n-C12-18—[O—CH2—CH2]5—O—CH2—O—CH2—CH2—O—Bu (A) n-C12-18—[O—CH2—CH2]3—O—CH2—O—CH2—CH2—O—Bu (B) n-C12[O—CH2—CH2]5—Bu (C)

Substance | Infected leaf area at 25% dose rate [%] | Infected leaf area at 100% dose rate [%]
butyl endcapped ethoxylated (5EO) n-dodecanol [(C), reference compound] | 38 | 8
n-C12-18—[O—CH2—CH2]3—O—CH2—O—CH2—CH2—O—Bu [(B)] | 13 | 6
n-C12-18—[O—CH2—CH2]5—O—CH2—O—CH2—CH2—O—Bu [(A)] | 23 | 7
